The values that follow come from patent publication US20040110787A1, “Heteroaryl-ethanolamine derivatives as antiviral agents” (priority 2002, published 2004).

One data set has as its target T1, HCMV polymerase (Human cytomegalovirus, UniProt P08546).
T1 construct: made in house; host or cells: recombinant baculovirus-infected SF-9 cells
Put plainly: HCMV polymerase scintillation proximity assay (SPA). It counts as biochemical. As to conditions: HCMV polymerase, SPA; read-out: Polymerase IC50 HCMV. Here is the method: The HCMV polymerase assay is performed using a scintillation proximity assay (SPA) as described in several references, such as N. D. Cook, et al., Pharmaceutical Manufacturing International, pages 49-53 (1992); K Takeuchi, Laboratory Practice, September issue (1992); U.S. Pat. No. 4,568,649 (1986); which are incorporated by reference herein. Reactions are performed in 96-well plates. The assay is conducted in 100 μl volume with 5.4 mM HEPES (pH 7.5), 11.7 mM KCl, 4.5 mM MgCl2, 0.36 mg/ml BSA, and 90 nM ^3H-dTTP. Assays are run with and without CHAPS, (3-[(3-Cholamidopropyl)-dimethylammonio]-1-propane-sulfonate) at a final concentration of 2 mM. HCMV polymerase is diluted in enzyme dilution buffer containing 50% glycerol, 250 mM NaCl, 10 mM HEPES (pH 7.5), 100 μg/ml BSA, and 0.01% sodium azide. The HCMV polymerase, which is expressed in, recombinant baculovirus-infected SF-9 cells and purified according to literature procedures, is added at 10% (or 10 μl) of the final reaction volume, i.e., 100 μl. Compounds are diluted in 50% DMSO and 10 μl are added to each well. Control wells contain an equivalent concentration of DMSO. Unless noted otherwise, reactions are initiated via the addition of 6 nM biotinylated poly(dA)-oligo(dT) template/primer to reaction mixtures containing the enzyme, substrate, and compounds of interest. Plates are incubated in a 25° C. or 37° C. H2O bath and terminated via the addition of 40 μl/reaction of 0.5 M EDTA (pH 8) per well. Reactions are terminated within the time-frame during which substrate incorporation is linear and varied depending upon the enzyme and conditions used, i.e., 30 min. for HCMV polymerase. Ten (10) 10 μL of streptavidin-SPA beads (20 mg/ml in PBS/10% glycerol) are added following termination of the reaction. Plates are incubated 10 min. at 37° C., then equilibrated to room temperature, and counted on a Packard Topcount. Linear regressions are performed and IC50's are calculated using computer software.
A modified version of the above HCMV polymerase assay is performed as described above, but with the following changes: Compounds are diluted in 100% DMSO until final dilution into assay buffer. In the previous assay, compounds are diluted in 50% DMSO. 4.5 mM Dithiothreitol (DTT) is added to the polymerase buffer.
All results are listed as Polymerase IC50 ([…]) values. In Table 1, the term “n.d.” refers to activity data not determined.

A further data set deals with VZV polymerase (Varicella-zoster virus, UniProt P09252). Nature of the data set: VZV polymerase assay (Table 1). It counts as biochemical.
Sequence of VZV polymerase (P09252 whole entry): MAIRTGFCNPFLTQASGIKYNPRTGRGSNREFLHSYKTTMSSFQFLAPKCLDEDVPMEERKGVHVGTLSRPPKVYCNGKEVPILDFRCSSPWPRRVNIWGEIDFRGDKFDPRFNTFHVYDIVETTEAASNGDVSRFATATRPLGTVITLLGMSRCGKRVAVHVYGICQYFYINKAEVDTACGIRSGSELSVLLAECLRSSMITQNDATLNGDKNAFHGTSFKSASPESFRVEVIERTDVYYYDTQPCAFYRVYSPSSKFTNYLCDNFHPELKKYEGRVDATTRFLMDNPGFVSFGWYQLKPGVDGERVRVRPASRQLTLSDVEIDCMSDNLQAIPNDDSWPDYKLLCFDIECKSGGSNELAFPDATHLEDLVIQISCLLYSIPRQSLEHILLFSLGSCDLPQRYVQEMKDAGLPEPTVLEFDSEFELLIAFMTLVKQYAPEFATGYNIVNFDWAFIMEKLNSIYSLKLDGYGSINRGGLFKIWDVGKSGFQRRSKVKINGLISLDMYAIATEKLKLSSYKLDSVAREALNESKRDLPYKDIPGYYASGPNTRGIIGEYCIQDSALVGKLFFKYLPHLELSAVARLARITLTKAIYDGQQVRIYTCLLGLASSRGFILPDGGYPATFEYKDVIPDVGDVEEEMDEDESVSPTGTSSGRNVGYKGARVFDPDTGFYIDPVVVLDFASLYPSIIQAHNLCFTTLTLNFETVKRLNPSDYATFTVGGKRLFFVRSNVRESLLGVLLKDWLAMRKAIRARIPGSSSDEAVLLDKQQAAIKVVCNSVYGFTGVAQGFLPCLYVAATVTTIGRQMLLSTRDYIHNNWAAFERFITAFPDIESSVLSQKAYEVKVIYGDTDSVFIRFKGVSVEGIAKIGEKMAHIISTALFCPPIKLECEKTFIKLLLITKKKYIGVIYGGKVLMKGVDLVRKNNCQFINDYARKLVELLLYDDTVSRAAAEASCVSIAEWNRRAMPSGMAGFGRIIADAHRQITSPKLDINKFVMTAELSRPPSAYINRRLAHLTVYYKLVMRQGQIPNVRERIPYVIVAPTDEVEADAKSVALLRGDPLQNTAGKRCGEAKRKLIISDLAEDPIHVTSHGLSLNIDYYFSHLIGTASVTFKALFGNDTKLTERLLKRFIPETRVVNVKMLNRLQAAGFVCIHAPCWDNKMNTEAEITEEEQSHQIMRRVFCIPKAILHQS
The next data set addresses HSV polymerase (Human herpesvirus 1, UniProt P04293). Put plainly: HSV polymerase assay (Table 1). It counts as biochemical.

T1 sequence (P08546 whole entry): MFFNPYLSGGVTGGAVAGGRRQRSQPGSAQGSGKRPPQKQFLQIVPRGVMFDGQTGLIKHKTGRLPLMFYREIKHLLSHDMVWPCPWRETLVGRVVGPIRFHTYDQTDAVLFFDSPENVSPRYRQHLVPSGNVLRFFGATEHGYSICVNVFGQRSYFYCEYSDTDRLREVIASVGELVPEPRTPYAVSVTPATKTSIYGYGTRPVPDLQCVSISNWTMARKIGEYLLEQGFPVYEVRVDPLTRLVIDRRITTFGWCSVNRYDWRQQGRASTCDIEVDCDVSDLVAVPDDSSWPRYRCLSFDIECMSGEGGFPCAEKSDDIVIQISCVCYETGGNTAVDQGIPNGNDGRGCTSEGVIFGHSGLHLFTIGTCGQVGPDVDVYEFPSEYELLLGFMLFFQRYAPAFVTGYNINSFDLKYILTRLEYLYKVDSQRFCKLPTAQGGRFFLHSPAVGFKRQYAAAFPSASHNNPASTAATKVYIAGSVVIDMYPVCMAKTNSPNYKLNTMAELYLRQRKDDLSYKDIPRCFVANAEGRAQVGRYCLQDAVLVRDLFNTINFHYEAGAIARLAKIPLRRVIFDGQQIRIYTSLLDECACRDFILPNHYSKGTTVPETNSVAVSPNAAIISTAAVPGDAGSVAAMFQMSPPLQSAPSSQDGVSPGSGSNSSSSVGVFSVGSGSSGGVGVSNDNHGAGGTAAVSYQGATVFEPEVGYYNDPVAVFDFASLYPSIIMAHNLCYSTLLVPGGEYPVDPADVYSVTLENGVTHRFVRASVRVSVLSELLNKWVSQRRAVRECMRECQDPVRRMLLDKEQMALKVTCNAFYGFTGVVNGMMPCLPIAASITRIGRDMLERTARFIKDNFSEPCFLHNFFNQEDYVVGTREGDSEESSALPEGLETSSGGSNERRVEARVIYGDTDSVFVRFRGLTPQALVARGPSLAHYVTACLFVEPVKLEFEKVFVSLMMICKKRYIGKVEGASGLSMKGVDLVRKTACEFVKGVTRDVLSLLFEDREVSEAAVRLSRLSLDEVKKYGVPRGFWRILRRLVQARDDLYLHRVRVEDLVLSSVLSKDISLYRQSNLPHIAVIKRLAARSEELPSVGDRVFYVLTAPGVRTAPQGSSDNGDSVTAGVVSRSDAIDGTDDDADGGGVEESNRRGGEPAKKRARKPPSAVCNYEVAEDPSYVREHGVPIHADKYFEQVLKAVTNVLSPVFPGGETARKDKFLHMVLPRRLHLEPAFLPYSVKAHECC
Sequence of HSV polymerase (P04293 whole entry): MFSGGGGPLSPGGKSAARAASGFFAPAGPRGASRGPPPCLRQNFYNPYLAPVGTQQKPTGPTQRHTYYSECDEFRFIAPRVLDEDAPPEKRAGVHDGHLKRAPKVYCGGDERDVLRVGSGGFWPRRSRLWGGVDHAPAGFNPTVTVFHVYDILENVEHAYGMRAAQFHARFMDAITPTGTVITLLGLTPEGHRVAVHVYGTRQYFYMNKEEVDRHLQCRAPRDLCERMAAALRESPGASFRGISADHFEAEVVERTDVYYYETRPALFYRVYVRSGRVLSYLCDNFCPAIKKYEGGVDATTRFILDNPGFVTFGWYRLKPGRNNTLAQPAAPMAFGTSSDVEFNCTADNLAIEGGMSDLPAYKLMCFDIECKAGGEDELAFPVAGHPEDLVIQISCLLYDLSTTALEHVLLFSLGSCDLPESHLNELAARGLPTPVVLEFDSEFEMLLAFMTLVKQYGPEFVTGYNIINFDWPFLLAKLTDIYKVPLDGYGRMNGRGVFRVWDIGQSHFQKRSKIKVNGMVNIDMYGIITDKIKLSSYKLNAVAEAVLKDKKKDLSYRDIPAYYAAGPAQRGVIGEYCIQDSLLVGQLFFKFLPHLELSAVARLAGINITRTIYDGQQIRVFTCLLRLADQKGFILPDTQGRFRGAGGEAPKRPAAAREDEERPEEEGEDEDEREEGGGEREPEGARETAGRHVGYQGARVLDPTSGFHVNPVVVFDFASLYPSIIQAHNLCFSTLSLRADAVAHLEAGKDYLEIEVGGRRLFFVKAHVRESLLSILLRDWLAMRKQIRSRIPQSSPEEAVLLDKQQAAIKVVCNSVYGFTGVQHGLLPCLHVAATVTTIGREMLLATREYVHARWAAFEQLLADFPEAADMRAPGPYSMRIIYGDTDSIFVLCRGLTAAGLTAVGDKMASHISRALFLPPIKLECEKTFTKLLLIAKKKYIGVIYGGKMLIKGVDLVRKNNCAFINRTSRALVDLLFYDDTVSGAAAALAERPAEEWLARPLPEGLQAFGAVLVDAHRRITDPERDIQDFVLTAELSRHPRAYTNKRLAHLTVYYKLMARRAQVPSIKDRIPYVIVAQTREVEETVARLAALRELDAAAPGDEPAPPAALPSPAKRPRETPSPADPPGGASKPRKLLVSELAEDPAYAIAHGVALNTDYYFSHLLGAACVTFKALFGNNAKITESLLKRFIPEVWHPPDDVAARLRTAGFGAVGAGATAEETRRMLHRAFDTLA

`CN(Cc1cc2c(=O)c(C(=O)NCc3ccc(Cl)cc3)cn(C)c2s1)CC(O)c1ccncc1` (racemic) [Example 3, rac-N-(4-Chlorobenzyl)-2-(((2-hydroxy-2-pyridin-4-ylethyl)(methyl)amino)methyl)-7-methyl-4-oxo-4,7-dihydrothieno[2,3-b]pyridine-5-carboxamide] returned a melting point of 185 to 188 °C. In addition, at HCMV polymerase, the IC50 was found to be 200 nM. The IC50 against VZV polymerase amounted to 220 nM. In addition, the IC50 against HSV polymerase stood at 470 nM.
`CN(Cc1cc2c(=O)c(C(=O)NCc3ccc(Cl)cc3)cn(C)c2s1)CC(O)c1cccnc1` (racemic) [Example 1, rac-N-(4-Chlorobenzyl)-2-(((2-hydroxy-2-pyridin-3-ylethyl)(methyl)amino)methyl)-7-methyl-4-oxo-4,7-dihydrothieno[2,3-b]pyridine-5-carboxamide] displayed a melting point of 160 to 162 °C. Moreover, at HCMV polymerase, the IC50 stood at 160 nM. The compound also returned an IC50 against VZV polymerase of 220 nM. The compound further showed an IC50 on HSV polymerase of 580 nM.
The like results for `CN(Cc1cc2c(=O)c(C(=O)NCc3ccc(Cl)cc3)cn(C)c2s1)CC(O)c1ccccn1` (racemic) [Example 4, rac-N-(4-Chlorobenzyl)-2-(((2-hydroxy-2-pyridin-2-ylethyl)(methyl)amino)methyl)-7-methyl-4-oxo-4,7-dihydrothieno[2,3-b]pyridine-5-carboxamide] were, in that order, 145 to 147 °C, 90 nM, 30 nM and 100 nM.
The compound `CN(Cc1cc2c(=O)c(C(=O)NCc3ccc(Cl)cc3)cn(C)c2s1)CC(O)c1ncccn1` (racemic) [Example 8, rac-N-(4-Chlorobenzyl)-2-(((2-hydroxy-2-pyrimidin-2-ylethyl)(methyl)amino)methyl)-7-methyl-4-oxo-4,7-dihydrothieno[2,3-b]pyridine-5-carboxamide] yielded a melting point of 181 °C. In addition, on HCMV polymerase, the IC50 is 130 nM. At VZV polymerase, this compound gave an IC50 of 50 nM. This compound also returned an IC50 against HSV polymerase of 150 nM.
Regarding `CN(Cc1cc2c(=O)c(C(=O)NCc3ccc(Cl)cc3)cn(C)c2s1)CC(O)c1ccc2ccccc2n1` (racemic) [Example 7, rac-N-(4-Chlorobenzyl)-2-(((2-hydroxy-2-quinolin-2-ylethyl)(methyl)amino)methyl)-7-methyl-4-oxo-4,7-dihydrothieno[2,3-b]pyridine-5-carboxamide], the melting point was 155 to 160 °C. Moreover, at HCMV polymerase, the IC50 turned out to be 70 nM. Also, the IC50 against VZV polymerase was 40 nM. At HSV polymerase, the IC50 was found to be 150 nM.

In general, IC50 refers to the concentration that inhibits the measured activity by half. In general, melting point refers to the temperature, or range, at which the solid turns liquid.
